From the NIST ThermoML archive (doi:10.1021/je060139a)
“And” between values parts separate entries of the source, which are not always exact repeats. Equal entries are not always repeated. Numbers after ± are expanded uncertainties.

Key:
[1] = for surface tension liquid-gas: Wilhelmy plate method; for mass density: 298.15 K, 101.33 kPa, Liquid
[2] = refractive index (Na D-line) (dimensionless); settings: 101.33 kPa, Liquid, Standard Abbe refractometry
[3] = xn = mol fraction of the nth substance listed; settings: Wilhelmy plate method, x2 = 0
[4] = refractive index (Na D-line) (dimensionless); xn = mol fraction of the nth substance listed; settings: 100.5 kPa, Liquid, Standard Abbe refractometry, x2 = 0

SMILES	surface tension liquid-gas ([1]; 288.15 K) [mN/m]	mass density [1] [kg/m3]	surface tension liquid-gas ([1]; 298.18 K) [mN/m]	surface tension liquid-gas ([1]; 308.15 K) [mN/m]	surface tension liquid-gas ([1]; 318.15 K) [mN/m]	refractive index ([2]; 288.15 K)	refractive index ([2]; 298.18 K)	refractive index ([2]; 308.15 K)	refractive index ([2]; 318.15 K)	surface tension liquid-gas ([3]; 288.15 K) [mN/m]	surface tension liquid-gas ([3]; 298.18 K) [mN/m]	surface tension liquid-gas ([3]; 308.15 K) [mN/m]	surface tension liquid-gas ([3]; 318.15 K) [mN/m]	refractive index ([4]; 288.15 K)	refractive index ([4]; 298.18 K)	refractive index ([4]; 308.15 K)	refractive index ([4]; 318.15 K)
CC(=O)OCc1ccccc1 [benzyl ethanoate]	37.7 ± 0.41	1050.75 ± 0.3	36.4 ± 0.41	35.3 ± 0.41	34.1 ± 0.41	1.50439 ± 0.00032	1.49982 ± 0.00032	1.49539 ± 0.00032	1.49064 ± 0.00032								
CCC(=O)OCc1ccccc1 [benzyl propanoate]	36 ± 0.41	1027.6 ± 0.4	34.8 ± 0.41	33.6 ± 0.41	32.4 ± 0.41	1.4995 ± 0.00034	1.49498 ± 0.00034	1.49074 ± 0.00034	1.48611 ± 0.00034								
CCO [ethanol]	23 ± 0.4	785 ± 0.24	22.3 ± 0.4	21.5 ± 0.4	20.6 ± 0.4	1.3633 ± 0.0003 and 1.36333 ± 0.00031	1.3594 ± 0.0003 and 1.35941 ± 0.00031	1.3553 ± 0.0003 and 1.35531 ± 0.00031	1.3515 ± 0.0003 and 1.35148 ± 0.00031								
CCO [ethanol] + CC(=O)OCc1ccccc1										23 ± 0.4	22.3 ± 0.4	21.5 ± 0.4	20.6 ± 0.4	1.36333 ± 0.00031	1.35941 ± 0.00031	1.35531 ± 0.00031	1.35148 ± 0.00031
CCO [ethanol] + CCC(=O)OCc1ccccc1										23 ± 0.4	22.3 ± 0.4	21.5 ± 0.4	20.6 ± 0.4	1.36333 ± 0.00031	1.35941 ± 0.00031	1.35531 ± 0.00031	1.35148 ± 0.00031
CCO [ethanol] + CCOC(=O)CC(C)=O										23 ± 0.4	22.3 ± 0.4	21.5 ± 0.4	20.6 ± 0.4	1.3633 ± 0.0003	1.3594 ± 0.0003	1.3553 ± 0.0003	1.3515 ± 0.0003
CCO [ethanol] + CCOC(=O)CC(C)C										23 ± 0.4	22.3 ± 0.4	21.5 ± 0.4	20.6 ± 0.4	1.36333 ± 0.00031	1.35941 ± 0.00031	1.35531 ± 0.00031	1.35148 ± 0.00031
CCO [ethanol] + CCOC(=O)c1ccccc1O										23 ± 0.4	22.3 ± 0.4	21.5 ± 0.4	20.6 ± 0.4	1.36333 ± 0.00031	1.35941 ± 0.00031	1.35531 ± 0.00031	1.35148 ± 0.00031

The remaining lines, values ahead:

surface tension liquid-gas ([1]; 288.15 K) [mN/m]	mass density [1] [kg/m3]	surface tension liquid-gas ([1]; 298.18 K) [mN/m]	surface tension liquid-gas ([1]; 308.15 K) [mN/m]	surface tension liquid-gas ([1]; 318.15 K) [mN/m]	refractive index ([2]; 288.15 K)	refractive index ([2]; 298.18 K)	refractive index ([2]; 308.15 K)	refractive index ([2]; 318.15 K)	surface tension liquid-gas ([3]; 288.15 K) [mN/m]	surface tension liquid-gas ([3]; 298.18 K) [mN/m]	surface tension liquid-gas ([3]; 308.15 K) [mN/m]	surface tension liquid-gas ([3]; 318.15 K) [mN/m]	refractive index ([4]; 288.15 K)	refractive index ([4]; 298.18 K)	refractive index ([4]; 308.15 K)	refractive index ([4]; 318.15 K)	SMILES
									23 ± 0.4	22.3 ± 0.4	21.5 ± 0.4	20.6 ± 0.4	1.36333 ± 0.00031	1.35941 ± 0.00031	1.35531 ± 0.00031	1.35148 ± 0.00031	CCO [ethanol] + COC(=O)c1ccccc1
37.5 ± 0.41	1125 ± 0.4	36.3 ± 0.41	35.2 ± 0.41	34.4 ± 0.41	1.52481 ± 0.00032	1.52022 ± 0.00032	1.51573 ± 0.00032	1.51116 ± 0.00032									CCOC(=O)c1ccccc1O [ethyl 2-hydroxybenzoate]
24.4 ± 0.42	859.78 ± 0.82	23.5 ± 0.42	22.45 ± 0.42	21.6 ± 0.41	1.3988 ± 0.00037	1.39401 ± 0.00037	1.38931 ± 0.00037	1.38458 ± 0.00037									CCOC(=O)CC(C)C [ethyl 3-methylbutanoate]
33.3 ± 0.42	1023.45 ± 0.52	32.3 ± 0.42	31.1 ± 0.42	30 ± 0.42	1.4209 ± 0.0004	1.4166 ± 0.0004	1.4125 ± 0.0004	1.408 ± 0.0004									CCOC(=O)CC(C)=O [ethyl 3-oxobutanoate]
38.6 ± 0.43	1083.92 ± 0.68	37.2 ± 0.43	35.8 ± 0.43	34.8 ± 0.42	1.51915 ± 0.00035	1.51467 ± 0.00035	1.50993 ± 0.00035	1.50514 ± 0.00035									COC(=O)c1ccccc1 [methyl benzoate]
